Test in all cases: relative viability (nuclei count vs DMSO), 5 days (fraction); higher = more cells survive
Compound in the experiment “RU-SKI 43 + Luminespib”: CC[C@@H](C)CNCC(=O)N1CCC2=C([C@@H]1COC3=CC=CC(=C3)C)C=CS2 [RU-SKI 43] + CCNC(=O)c1noc(-c2cc(C(C)C)c(O)cc2O)c1-c1ccc(CN2CCOCC2)cc1 [Luminespib] (partner 0.01 µM)
The method, boiled down: (§1)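 Lung cancer cell lines were pin-tool dosed in 1536-well plates on the day after seeding, with either a lone drug or a fixed anchor-drug dose plus five library-drug doses (not always all listed) in √10 steps. Nuclei were counted on 4× images after 5 days. Relative viability is the ratio of treated-well to vehicle-well nuclei counts, with each value a median of duplicate plates.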

Compound in the experiment “Irinotecan + Vorinostat”: CCc1c2c(nc3ccc(OC(=O)N4CCC(N5CCCCC5)CC4)cc13)-c1cc3c(c(=O)n1C2)COC(=O)[C@]3(O)CC [Irinotecan] + O=C(CCCCCCC(=O)Nc1ccccc1)NO [Vorinostat] (partner 1 µM)
The method, boiled down: as §1

Compound in the experiment “MK-8033 + Pictilisib”: Cn1cc(-c2cnc3ccc4ccc(CS(=O)(=O)NCc5ccccn5)cc4c(=O)c3c2)cn1 [MK-8033] + CS(=O)(=O)N1CCN(Cc2cc3nc(-c4cccc5[nH]ncc45)nc(N4CCOCC4)c3s2)CC1 [Pictilisib] (partner 1 µM)
The procedure, abridged:
as §1

Compound in the experiment “MK-8033 + Vorinostat”: Cn1cc(-c2cnc3ccc4ccc(CS(=O)(=O)NCc5ccccn5)cc4c(=O)c3c2)cn1 [MK-8033] + O=C(CCCCCCC(=O)Nc1ccccc1)NO [Vorinostat] (partner 1 µM)
The procedure, abridged: as §1

As for NCI-H1793, the relative viability in the experiment with RU-SKI 43 + Luminespib (first compound 0.1 µM) is 0.167; with RU-SKI 43 + Luminespib (first compound 0.3162 µM), 0.154; with RU-SKI 43 + Luminespib (first compound 1 µM) it was 0.205; with RU-SKI 43 + Luminespib (first compound 3.162 µM), 0.154; with RU-SKI 43 + Luminespib (first compound 10 µM), 0.183; with Irinotecan + Vorinostat (first compound 2 µM) it was 0.633. Also, the relative viability with Irinotecan + Vorinostat (first compound 6.325 µM) was found to be 0.372; in the experiment with Irinotecan + Vorinostat (first compound 20 µM), 0.244; in the experiment with MK-8033 + Pictilisib (first compound 0.02 µM) it was 0.32; with MK-8033 + Pictilisib (first compound 0.2 µM), 0.286; with MK-8033 + Pictilisib (first compound 0.6325 µM), 0.307; with MK-8033 + Pictilisib (first compound 2 µM), 0.258. For the same cell line, the relative viability in the experiment with MK-8033 + Vorinostat (first compound 0.02 µM) was found to be 0.675; with MK-8033 + Vorinostat (first compound 0.2 µM), 0.559; in the experiment with MK-8033 + Vorinostat (first compound 0.6325 µM) it was 0.713; in the experiment with MK-8033 + Vorinostat (first compound 2 µM) it was 0.618.
In the case of NCI-H1915, the relative viability is 0.837 with RU-SKI 43 + Luminespib (first compound 0.1 µM); 1.44 in the experiment with RU-SKI 43 + Luminespib (first compound 0.3162 µM); 1.02 in the experiment with RU-SKI 43 + Luminespib (first compound 1 µM); 0.869 with RU-SKI 43 + Luminespib (first compound 3.162 µM); 0.895 with RU-SKI 43 + Luminespib (first compound 10 µM); 0.307 in the experiment with Irinotecan + Vorinostat (first compound 0.6325 µM). The relative viability came out at 0.329 in the experiment with Irinotecan + Vorinostat (first compound 2 µM); 0.168 with Irinotecan + Vorinostat (first compound 6.325 µM); 0.147 with Irinotecan + Vorinostat (first compound 20 µM); 0.969 in the experiment with MK-8033 + Pictilisib (first compound 0.02 µM); 0.785 with MK-8033 + Pictilisib (first compound 0.06325 µM); 0.914 with MK-8033 + Pictilisib (first compound 0.2 µM). Besides, the relative viability in the experiment with MK-8033 + Pictilisib (first compound 0.6325 µM) amounted to 1; with MK-8033 + Pictilisib (first compound 2 µM) it was 0.861; with MK-8033 + Vorinostat (first compound 0.02 µM), 0.467; with MK-8033 + Vorinostat (first compound 0.06325 µM) it was 0.438; in the experiment with MK-8033 + Vorinostat (first compound 0.2 µM), 0.518; in the experiment with MK-8033 + Vorinostat (first compound 0.6325 µM), 0.494. Moreover, the relative viability with MK-8033 + Vorinostat (first compound 2 µM) was found to be 0.49.
Regarding NCI-H1944, the relative viability worked out at 0.643 in the experiment with RU-SKI 43 + Luminespib (first compound 0.1 µM); 0.751 in the experiment with RU-SKI 43 + Luminespib (first compound 0.3162 µM); 0.832 with RU-SKI 43 + Luminespib (first compound 1 µM); 0.819 with RU-SKI 43 + Luminespib (first compound 3.162 µM); 0.662 with RU-SKI 43 + Luminespib (first compound 10 µM); 0.386 with Irinotecan + Vorinostat (first compound 0.6325 µM). Besides, the relative viability came out at 0.36 with Irinotecan + Vorinostat (first compound 2 µM); 0.223 in the experiment with Irinotecan + Vorinostat (first compound 6.325 µM); 0.166 with Irinotecan + Vorinostat (first compound 20 µM); 0.35 with MK-8033 + Pictilisib (first compound 0.02 µM); 0.347 with MK-8033 + Pictilisib (first compound 0.2 µM); 0.346 with MK-8033 + Pictilisib (first compound 0.6325 µM). In addition, the relative viability turned out to be 0.34 with MK-8033 + Pictilisib (first compound 2 µM); 0.6 in the experiment with MK-8033 + Vorinostat (first compound 0.02 µM); 0.579 with MK-8033 + Vorinostat (first compound 0.06325 µM); 0.625 with MK-8033 + Vorinostat (first compound 0.2 µM); 0.59 with MK-8033 + Vorinostat (first compound 0.6325 µM); 0.568 with MK-8033 + Vorinostat (first compound 2 µM).
As for NCI-H1975, the relative viability with RU-SKI 43 + Luminespib (first compound 0.1 µM) was 0.199; with RU-SKI 43 + Luminespib (first compound 0.3162 µM) it was 0.172; with RU-SKI 43 + Luminespib (first compound 1 µM), 0.229; in the experiment with RU-SKI 43 + Luminespib (first compound 3.162 µM), 0.157; in the experiment with RU-SKI 43 + Luminespib (first compound 10 µM), 0.25; in the experiment with Irinotecan + Vorinostat (first compound 0.6325 µM), 0.714. The relative viability with Irinotecan + Vorinostat (first compound 2 µM) was determined as 0.708; with Irinotecan + Vorinostat (first compound 6.325 µM), 0.378; with Irinotecan + Vorinostat (first compound 20 µM) it was 0.269; with MK-8033 + Pictilisib (first compound 0.02 µM) it was 0.302; in the experiment with MK-8033 + Pictilisib (first compound 0.06325 µM) it was 0.266; in the experiment with MK-8033 + Pictilisib (first compound 0.2 µM), 0.269. Moreover, the relative viability with MK-8033 + Pictilisib (first compound 0.6325 µM) amounted to 0.307; with MK-8033 + Pictilisib (first compound 2 µM), 0.315; with MK-8033 + Vorinostat (first compound 0.02 µM), 0.713; in the experiment with MK-8033 + Vorinostat (first compound 0.06325 µM) it was 0.669; in the experiment with MK-8033 + Vorinostat (first compound 0.2 µM) it was 0.634; in the experiment with MK-8033 + Vorinostat (first compound 0.6325 µM) it was 0.695. Also, in the experiment with MK-8033 + Vorinostat (first compound 2 µM), the relative viability worked out at 0.752.
As to NCI-H1993, the relative viability in the experiment with RU-SKI 43 + Luminespib (first compound 0.1 µM) was 0.714; with RU-SKI 43 + Luminespib (first compound 0.3162 µM), 0.813; with RU-SKI 43 + Luminespib (first compound 1 µM) it was 0.982; with RU-SKI 43 + Luminespib (first compound 3.162 µM), 1.02; with RU-SKI 43 + Luminespib (first compound 10 µM), 0.825; in the experiment with Irinotecan + Vorinostat (first compound 2 µM) it was 0.529. Moreover, the relative viability with Irinotecan + Vorinostat (first compound 6.325 µM) worked out at 0.584; with Irinotecan + Vorinostat (first compound 20 µM) it was 0.612; with MK-8033 + Pictilisib (first compound 0.02 µM), 0.842; with MK-8033 + Pictilisib (first compound 0.06325 µM) it was 0.75; with MK-8033 + Pictilisib (first compound 0.2 µM), 0.669; with MK-8033 + Pictilisib (first compound 0.6325 µM) it was 1. The relative viability stood at 0.763 with MK-8033 + Pictilisib (first compound 2 µM); 0.688 with MK-8033 + Vorinostat (first compound 0.02 µM); 0.644 with MK-8033 + Vorinostat (first compound 0.06325 µM); 0.587 with MK-8033 + Vorinostat (first compound 0.2 µM); 0.571 with MK-8033 + Vorinostat (first compound 0.6325 µM); 0.638 in the experiment with MK-8033 + Vorinostat (first compound 2 µM).
For NCI-H2009, the relative viability in the experiment with RU-SKI 43 + Luminespib (first compound 0.1 µM) came to 0.981; with RU-SKI 43 + Luminespib (first compound 0.3162 µM), 1.12; with RU-SKI 43 + Luminespib (first compound 1 µM) it was 0.984; with RU-SKI 43 + Luminespib (first compound 3.162 µM) it was 1.02; with RU-SKI 43 + Luminespib (first compound 10 µM), 1.03; with Irinotecan + Vorinostat (first compound 0.6325 µM) it was 0.589. Also, the relative viability with Irinotecan + Vorinostat (first compound 2 µM) came out at 0.379; with Irinotecan + Vorinostat (first compound 6.325 µM), 0.236; with Irinotecan + Vorinostat (first compound 20 µM) it was 0.135; with MK-8033 + Pictilisib (first compound 0.02 µM), 0.833; with MK-8033 + Pictilisib (first compound 0.06325 µM), 0.716; with MK-8033 + Pictilisib (first compound 0.2 µM) it was 0.732. For the same cell line, the relative viability is 0.775 with MK-8033 + Pictilisib (first compound 0.6325 µM); 0.771 with MK-8033 + Pictilisib (first compound 2 µM); 0.678 in the experiment with MK-8033 + Vorinostat (first compound 0.02 µM); 0.689 in the experiment with MK-8033 + Vorinostat (first compound 0.06325 µM); 0.776 in the experiment with MK-8033 + Vorinostat (first compound 0.2 µM); 0.733 in the experiment with MK-8033 + Vorinostat (first compound 0.6325 µM). For the same cell line, the relative viability with MK-8033 + Vorinostat (first compound 2 µM) was 0.676.
Take NCI-H2023: the relative viability was determined as 0.919 in the experiment with RU-SKI 43 + Luminespib (first compound 0.1 µM); 1 in the experiment with RU-SKI 43 + Luminespib (first compound 0.3162 µM); 0.887 with RU-SKI 43 + Luminespib (first compound 1 µM); 0.856 with RU-SKI 43 + Luminespib (first compound 3.162 µM); 0.876 with RU-SKI 43 + Luminespib (first compound 10 µM); 0.365 with Irinotecan + Vorinostat (first compound 0.6325 µM). The relative viability in the experiment with Irinotecan + Vorinostat (first compound 2 µM) turned out to be 0.451; with Irinotecan + Vorinostat (first compound 6.325 µM), 0.204; with Irinotecan + Vorinostat (first compound 20 µM), 0.0592; with MK-8033 + Pictilisib (first compound 0.02 µM), 0.264; with MK-8033 + Pictilisib (first compound 0.06325 µM), 0.194; with MK-8033 + Pictilisib (first compound 0.2 µM) it was 0.186. Further, the relative viability with MK-8033 + Pictilisib (first compound 0.6325 µM) was 0.219; with MK-8033 + Pictilisib (first compound 2 µM), 0.179; with MK-8033 + Vorinostat (first compound 0.02 µM), 0.857; with MK-8033 + Vorinostat (first compound 0.06325 µM) it was 0.44; with MK-8033 + Vorinostat (first compound 0.2 µM), 0.583; in the experiment with MK-8033 + Vorinostat (first compound 0.6325 µM), 0.515. For the same cell line, the relative viability with MK-8033 + Vorinostat (first compound 2 µM) stood at 0.491.

Values taken from the supplement of paper PMC10307832.
